Test results from patent US7183415B2, “Quinoline compound” (Takeda Pharmaceutical Company Limited, priority 2001, dated 2007).

For `O=C(Nc1ccc2cc(CN3CCCC3)cnc2c1F)c1ccc(-c2ccccc2)cc1` [Example 71, N-[8-fluoro-3-(1-pyrrolidinylmethyl)-7-quinolinyl][1,1′-biphenyl]-4-carboxamide], which melting point is on record?
The melting point was 186 to 188 °C.

With `CCN(CC)Cc1cnc2cc(NC(=O)c3ccc(-c4ccc(Cl)cc4)cc3)c(OC)cc2c1` [Example 22, 4′-chloro-N-{3-[(diethylamino)methyl]-6-methoxy-7-quinolinyl}[1,1′-biphenyl]-4-carboxamide] as the compound, how does the melting point read?
Its melting point is 271 °C (dec.).

For `Cc1cc2cc(CN3CCCC3)cnc2cc1NC(=O)c1ccc(-c2ccco2)cc1` [Example 224, 4-(2-furyl)-N-[6-methyl-3-(1-pyrrolidinylmethyl)-7-quinolinyl]benzamide], which melting point is on record?
Its melting point is 154 °C.

For `CC(=O)c1ccc(-c2ccc(C(=O)Nc3ccc4cc(CN5CCCC5)cnc4c3C)cc2)s1` (hydrate or solvate) [Example 119, 4-(5-acetyl-2-thienyl)-N-[8-methyl-3-(1-pyrrolidinylmethyl)-7-quinolinyl]benzamide], which melting point is on record?
The melting point was 194 to 195 °C.

For `COc1ccc(-c2ccc(C(=O)Nc3cc4ncc(CN5CCCC5)cc4cc3F)cc2)cc1` [Example 53, N-[6-fluoro-3-(1-pyrrolidinylmethyl)-7-quinolinyl]-4′-methoxy[1,1′-biphenyl]-4-carboxamide], which melting point is on record?
Its melting point is 184 to 186 °C.

With `O=C(Nc1ccc2cc(CN3CCCCCC3)cnc2c1)N1CCC(c2ccc(Cl)cc2)CC1` [Example 34, N-[3-(1-azepanylmethyl)-7-quinolinyl]-4-(4-chlorophenyl)-1-piperidine carboxamide] as the compound, how does the melting point read?
Its melting point is 247 °C (dec.).

Which melting point does the source give for `Cc1c(NC(=O)c2ccc(C3CCCCC3)cc2)ccc2cc(CN3CCCC3)cnc12` [Example 122, 4-cyclohexyl-N-[8-methyl-3-(1-pyrrolidinylmethyl)-7-quinolinyl]benzamide] here?
The melting point was 178 to 179 °C.

Which melting point does the source give for `Cc1c(NC(=O)c2ccc(-c3ccc(F)cc3)cc2)ccc2cc(CN3CCC(CC(=O)N(C)C)CC3)cnc12` [Example 202, N-[3-({4-[2-(dimethylamino)-2-oxoethyl]-1-piperidinyl}methyl)-8-methyl-7-quinolinyl]-4′-fluoro[1,1′-biphenyl]-4-carboxamide] here?
Its melting point is 200 to 201 °C.

With `Cc1c(NC(=O)c2ccc(-c3ccc4c(c3)CCCO4)cc2)ccc2cc(CN3CCCC3)cnc12` [Example 114, 4-(3,4-dihydro-2H-chromen-6-yl)-N-[8-methyl-3-(1-pyrrolidinylmethyl)-7-quinolinyl]benzamide] as the compound, how does the melting point read?
The melting point was 195 to 197 °C.

Which melting point does the source give for `NC(=O)C1CCN(Cc2cnc3cc(NC(=O)c4ccc(-c5ccc(F)cc5)cc4)ccc3c2)CC1` [Example 42, 1-[(7-{[(4′-fluoro[1,1′-biphenyl]-4-yl)carbonyl]amino}-3-quinolinyl)methyl]-4-piperidine carboxamide] here?
The melting point was 261 to 265 °C.

With `CN1CCc2nc3cc(NC(=O)c4ccc(-c5ccc(Cl)cc5)cc4F)ccc3cc2C1` [Example 328, 4′-chloro-3-fluoro-N-(2-methyl-1,2,3,4-tetrahydrobenzo[b][1,6]naphthyridin-7-yl)[1,1′-biphenyl]-4-carboxamide] as the compound, how does the melting point read?
The melting point was > 220 °C (dec.).

With `Cc1c(NC(=O)c2ccc(-c3ccc(F)cc3F)cc2F)ccc2cc(CN3CCCC3)cnc12` [Example 139, 2′,3,4′-trifluoro-N-[8-methyl-3-(1-pyrrolidinylmethyl)-7-quinolinyl][1,1′-biphenyl]-4-carboxamide] as the compound, how does the melting point read?
Its melting point is 172 to 173 °C.

With `Cc1cc2cc(CN3CCC(C(=O)N4CCCCC4)CC3)cnc2cc1NC(=O)c1ccc(-c2ccc(F)cc2)cc1` [Example 271, 4′-fluoro-N-(6-methyl-3-{[4-(1-piperidinylcarbonyl)-1-piperidinyl]methyl}-7-quinolinyl)[1,1′-biphenyl]-4-carboxamide] as the compound, how does the melting point read?
Its melting point is 250 °C.

For `Cc1cc2cc(CN3CCC(C(N)=O)CC3)cnc2cc1NC(=O)c1ccc(-c2ccc(F)cc2)cc1` [Example 276, 1-[(7-{[(4′-fluoro-1,1′-biphenyl-4-yl)carbonyl]amino}-6-methyl-3-quinolinyl)methyl]piperidine-4-carboxamide], which melting point is on record?
Its melting point is 265 °C.
